According to US20210341371A1, “CELL SCANNING TECHNOLOGIES AND METHODS OF USE THEREOF” (priority 2018, published 2021):
Read-outs that look alike come from different tables or passages of the source.

Experiments:
[1] = test system: RBC membrane permeability; assay: Cell scan of blood samples from patients/subjects (RBC membrane permeability parameters), including effect of medication taken; type: in vivo, human; conditions: for effect of medication on the output of the cell scanning technologies: medication the subject has taken or is taking
Description: The present disclosure encompasses the recognition that one or more medications that the subject has taken or is taking may affect the output of the cell scanning technologies described herein. The effect of a particular medication on the output of the cell scanning technologies may vary by medication, e.g., vary in magnitude and/or in length of effect, and in some cases, a particular medication may have no effect at all. […] Accordingly, in some embodiments, provided methods further comprise determining whether or not the subject has taken or is taking a particular medication. In some embodiments, if the subject has taken a medication known to have a particular effect on the output of the cell scanning technologies, then a determined RBC membrane permeability parameter should be compared to a suitable reference control parameter (e.g., a reference control parameter determined in the presence or absence of the particular medication). In some embodiments, if the subject has taken a medication known to have a particular effect on the output of the cell scanning technologies, then further diagnostic assessment is warranted.
(§1) A sample of whole blood from a healthy volunteer was drawn into ACD anticoagulant. The unwashed sample was divided into aliquots and was analyzed using the Prior Shine Technology and/or the Provided Cell Scanning Technologies. The following outputs were obtained from the sample:
“Pk0” coincided with the minimum absolute osmotic pressure (e.g., most hypotonic pressure) to which a cell can be subjected without loss of integrity. Pk0 can be identified by determining the right-most extent of the intact cell population in the cell-by-cell graph, i.e., the point of osmolality immediately preceding the point at which the cells ruptured. In FIG. 1a, this minimum pressure is the “peak” 106. As the osmolality of the surrounding solution was reduced, the red blood cell ruptures and forms a ghost cell, which releases its contents into the surrounding medium.
Using the technologies described herein, a cell-by-cell analysis was converted into a plot of percent change of cell volume vs. osmolality (“Cell Scan Plot”) by converting the individual peak voltage into a cell volume, then calculating a mean volume for each 100 cells, and plotting the means to generate the Cell Scan Plot. The percentage change of cell volume at each osmolality is calculated and compared to the mean cell volume of an isotonic cell (e.g., FIG. 1b). On such a plot, Pk0 (see 101) is the osmotic pressure at which the net water flow is zero (i.e., when a cell achieved its maximum volume, i.e., when it is a perfect sphere). As described herein, in some embodiments, Pk0 can be used as an indicator of an individual's health status.
The Fluid Flux Curve (FFC) was determined by taking the first order derivative (with respect to osmolality) of Cell Scan Plot (FIG. 1c). In an FFC, Pk0 occurred at the zero crossing (101), which was where the slope of the Cell Scan Plot changes from positive to negative. A positive value on the FFC represented a net flow of fluid into the cell, while negative rates represented a net flow of fluid out of the cell. In the FFC, the positive peak 102 and negative peak 103 corresponded to the maximum and minimum, respectively, on the FFC. As used herein, “Pymax” is the magnitude of fluid flux at the maximum, and “Pymin” is the magnitude of fluid flux at the minimum.
Table 7 is organized by indication and reports the mean values for various parameters tested.
A person was tested using cell scanning technologies described herein at a check-up 2 months after being diagnosed with grand mal epilepsy. The results were within normal limits (as they were on a prior visit), except for the Pk0 which had shifted approx. 10 mOsm/kg to 136 mOsm/kg. Such a change may be attributed to their prescribed medication, phenytoin.

[2] = test system: RBC membrane permeability; type: cell-based, human
Description: The present disclosure also provides technologies for assessing (e.g., identifying and/or characterizing) agents and/or other compositions that modulate RBC membrane permeability (collectively, “RBC Permeability Modulating Agents”). Provided technologies may be useful for identifying RBC Permeability Modulating Agents. In some instances, a RBC Permeability Modulating Agent is expected to effect the health state of a subject exposed it (e.g., a beneficial or adverse effect). For example, provided methods allow for the evaluation of agents and/or compositions intended for use in humans (e.g., a drug candidate or prosthetic material).
In some embodiments, a sample is analyzed within a particular time period after being subjected to an agent or composition (e.g., within about 5 minutes, about 10 minutes, about 30 minutes, about 1 hour, about 2 hours, or about 5 hours). In some embodiments, a method further comprises evaluating dose response of an agent or composition (e.g., by subjecting each of a plurality of samples to varying concentrations of agent or composition).
as §1
“Pk0” coincided with the minimum absolute osmotic pressure (e.g., most hypotonic pressure) to which a cell can be subjected without loss of integrity. Pk0 can be identified by determining the right-most extent of the intact cell population in the cell-by-cell graph, i.e., the point of osmolality immediately preceding the point at which the cells ruptured. In FIG. 1a, this minimum pressure is the “peak” 106. […]
Using the technologies described herein, a cell-by-cell analysis was converted into a plot of percent change of cell volume vs. osmolality (“Cell Scan Plot”) by converting the individual peak voltage into a cell volume, then calculating a mean volume for each 100 cells, and plotting the means to generate the Cell Scan Plot. The percentage change of cell volume at each osmolality is calculated and compared to the mean cell volume of an isotonic cell (e.g., FIG. 1b). […]
The Fluid Flux Curve (FFC) was determined by taking the first order derivative (with respect to osmolality) of Cell Scan Plot (FIG. 1c). […]
Using the technologies provided herein, agents were tested for potential adverse in vivo effects prior to use in humans and/or animals. For example, a blood sample from a healthy volunteer was contacted with amphotericin B (0.5 μg/mL) and was analyzed using the provided cell scanning technologies. […]

O=C1NC(=O)C(c2ccccc2)(c2ccccc2)N1 [phenytoin]
shift of Pk0 versus prior visit ([1]; Patient X on prescribed phenytoin, change may be attributed to the medication): approx. 10 mOsm/kg
Pk0 ([1]; Patient X, person with grand mal epilepsy, 2 months after diagnosis, on prescribed phenytoin, change may be attributed to the medication): 136 mOsm/kg
effect of medication on the output of the cell scanning technologies [1]: have an effect on the output

OCCS [beta-mercaptoethanol]
effect of HgCl2 on RBC membrane permeability after addition of chelator [2]: the effect was reversed and RBC membrane permeability was restored

[Cl][Hg][Cl] [HgCl2]
flow of water across the membrane ([2]; unwashed whole blood from a healthy volunteer treated with 65 μM HgCl2): no flow of water across the membrane was detected
RBC membrane permeability ([2]; unwashed whole blood from a healthy volunteer treated with 65 μM HgCl2, monitored over time): essentially eliminated

CC(=O)CC(c1ccccc1)c1c(O)c2ccccc2oc1=O (stereo not drawn) [warfarin]
P0 (TOTAL) ([1]; mean value for patients with pulmonary embolus on warfarin, all patients (N=4)): 149.4
P0 (died) ([1]; mean value for patients with pulmonary embolus on warfarin, subset who died (N=1)): 157

C[C@@H]1[C@H](O)[C@@H](C)/C=C/C=C/C=C/C=C/C=C/C=C/C=C/[C@H](O[C@@H]2O[C@H](C)[C@@H](O)[C@H](N)[C@@H]2O)C[C@@H]2O[C@](O)(C[C@@H](O)C[C@@H](O)[C@H](O)CC[C@@H](O)C[C@@H](O)CC(=O)O[C@H]1C)C[C@H](O)[C@H]2C(=O)O [amphotericin B]
Pk0 ([2]; blood sample from a healthy volunteer contacted with amphotericin B 0.5 μg/mL, normal Pk0 approx. 142 mOsm/kg): 85 mOsm/kg
effect of medication on the output of the cell scanning technologies [1]: have an effect on the output

CCC1(c2ccccc2)C(=O)NC(=O)NC1=O [phenobarbitone]
effect of medication on the output of the cell scanning technologies [1]: have an effect on the output

CC(C)(S)[C@@H](N)C(=O)O [penicillamine]
effect of medication on the output of the cell scanning technologies [1]: have an effect on the output
